Reference: ChEMBL document CHEMBL1201862, “PubChem BioAssay data set” (2004)
Calls of active or inactive are those of the source.

Experiments:
[1] = microbe, parasite or virus in culture; assay type: functional; conditions: Mycobacterium tuberculosis
Nonstructural protein 1 = Nonstructural protein 1 (Influenza A virus, UniProt Q194T2); assay type: functional, Influenza A virus (A/California/07/2009(H1N1))
[2] = target: T1, Short transient receptor potential channel 4 (Mus musculus, UniProt Q9QUQ5); assay: block of DAMGO-driven TRPC4 calcium entry – cell-based, HEK293 TRPC4/mu-opioid, Fluo-4 calcium, dose response (AID 434942); assay type: functional;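 further: potency of inhibitors blocking the TRPC4 calcium response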
T1 sequence (Q9QUQ5 whole entry): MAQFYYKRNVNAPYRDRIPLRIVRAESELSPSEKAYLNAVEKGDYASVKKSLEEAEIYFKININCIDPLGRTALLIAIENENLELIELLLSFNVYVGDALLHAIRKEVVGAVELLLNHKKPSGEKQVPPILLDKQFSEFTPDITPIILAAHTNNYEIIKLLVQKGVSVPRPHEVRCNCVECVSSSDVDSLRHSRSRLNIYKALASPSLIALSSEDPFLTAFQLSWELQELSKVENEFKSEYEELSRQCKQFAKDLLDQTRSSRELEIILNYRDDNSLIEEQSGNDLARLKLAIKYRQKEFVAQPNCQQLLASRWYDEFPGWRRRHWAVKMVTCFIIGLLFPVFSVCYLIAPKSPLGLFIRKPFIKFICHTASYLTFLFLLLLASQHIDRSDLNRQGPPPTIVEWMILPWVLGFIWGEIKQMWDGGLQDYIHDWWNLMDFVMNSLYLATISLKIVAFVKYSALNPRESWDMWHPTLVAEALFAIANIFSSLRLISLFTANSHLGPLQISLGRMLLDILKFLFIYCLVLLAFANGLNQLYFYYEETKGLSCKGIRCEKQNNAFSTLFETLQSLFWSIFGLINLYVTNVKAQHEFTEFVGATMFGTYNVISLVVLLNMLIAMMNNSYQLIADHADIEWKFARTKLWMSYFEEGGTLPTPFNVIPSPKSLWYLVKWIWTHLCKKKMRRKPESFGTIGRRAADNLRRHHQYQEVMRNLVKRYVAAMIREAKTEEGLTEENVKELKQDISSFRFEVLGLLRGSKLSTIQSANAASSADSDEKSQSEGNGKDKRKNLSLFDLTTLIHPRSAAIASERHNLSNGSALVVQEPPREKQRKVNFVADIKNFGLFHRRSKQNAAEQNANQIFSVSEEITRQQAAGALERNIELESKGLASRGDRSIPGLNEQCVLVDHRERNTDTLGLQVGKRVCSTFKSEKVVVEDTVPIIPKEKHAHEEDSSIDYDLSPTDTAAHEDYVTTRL

Prothrombin = Prothrombin (Homo sapiens, UniProt P00734); assay: Thrombin 1536 HTS Dose Response Confirmation. [Related pubchem assays: 1046 (Thrombin 1536 HTS; hits were confirmed in this assay)]; assay type: functional
Cytochrome P450 2C9 = Cytochrome P450 2C9 (Homo sapiens, UniProt P11712)
[3] = target: DNA dC->dU-editing enzyme APOBEC-3G (Homo sapiens, UniProt Q9HC16); assay: Dose Response confirmation of small molecule APOBEC3G DNA Deaminase Inhibitors via a fluorescence-based single-stranded DNA deaminase assay. [Related pubchem assays (depositor defined):AID493012, AID493028]; assay type: functional
[4] = viability of uninfected HEp-2 cells – cell-based, HTS, cytotoxicity control for RSV inhibitor project, dose response (AID 2410); assay type: functional; conditions: human respiratory syncytial virus
Cytochrome P450 3A4 = Cytochrome P450 3A4 (Homo sapiens, UniProt P08684);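 further: CYP3A4 tested as one member of a cytochrome P450 panel screen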
[5] = target: FAD-linked sulfhydryl oxidase ALR (Homo sapiens, UniProt P55789); assay: ALR-catalysed DTT oxidation blockers – biochemical, H2O2 detection, luminescence, cherry-pick, dose response (AID 493248)
[6] = viability loss in HeLa cells – cytotoxicity control for MgcRacGAP inhibitor project, dose response (AID 624300); assay type: functional
[7] = target: T2, Rac GTPase-activating protein 1 (Homo sapiens, UniProt Q9H0H5); assay: blockers of MgcRacGAP-driven Rac1 GTP hydrolysis – biochemical, ADP Hunter fluorescence, primary and confirmatory, confirmation (AID 624330); assay type: functional
T2 sequence (Q9H0H5 whole entry): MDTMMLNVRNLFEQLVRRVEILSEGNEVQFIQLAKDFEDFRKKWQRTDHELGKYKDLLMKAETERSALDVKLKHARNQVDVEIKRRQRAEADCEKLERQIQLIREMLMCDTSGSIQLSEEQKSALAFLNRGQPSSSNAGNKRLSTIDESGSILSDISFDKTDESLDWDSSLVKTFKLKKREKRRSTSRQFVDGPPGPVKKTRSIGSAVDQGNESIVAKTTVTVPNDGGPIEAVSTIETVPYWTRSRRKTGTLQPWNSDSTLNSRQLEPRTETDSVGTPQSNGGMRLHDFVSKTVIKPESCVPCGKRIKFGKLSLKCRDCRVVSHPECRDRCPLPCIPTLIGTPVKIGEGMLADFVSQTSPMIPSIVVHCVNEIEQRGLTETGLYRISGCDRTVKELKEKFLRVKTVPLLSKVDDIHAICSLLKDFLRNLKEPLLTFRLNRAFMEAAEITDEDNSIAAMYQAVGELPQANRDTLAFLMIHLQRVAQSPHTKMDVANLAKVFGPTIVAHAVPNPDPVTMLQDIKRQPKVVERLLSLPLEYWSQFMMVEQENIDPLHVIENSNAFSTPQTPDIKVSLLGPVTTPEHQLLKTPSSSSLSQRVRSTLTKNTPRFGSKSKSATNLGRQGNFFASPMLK

[8] = target: T3, RNA-binding protein pos-1 (Caenorhabditis elegans, UniProt G5EF15); assay: disruptors of C. elegans POS-1 RNA interaction – biochemical, fluorescence polarization, dose response (AID 1964);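 further: purified POS-1 fused to maltose binding protein made in E. coli; potency of compounds blocking POS-1 binding to fluorescent RNA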
T3 sequence (G5EF15 whole entry): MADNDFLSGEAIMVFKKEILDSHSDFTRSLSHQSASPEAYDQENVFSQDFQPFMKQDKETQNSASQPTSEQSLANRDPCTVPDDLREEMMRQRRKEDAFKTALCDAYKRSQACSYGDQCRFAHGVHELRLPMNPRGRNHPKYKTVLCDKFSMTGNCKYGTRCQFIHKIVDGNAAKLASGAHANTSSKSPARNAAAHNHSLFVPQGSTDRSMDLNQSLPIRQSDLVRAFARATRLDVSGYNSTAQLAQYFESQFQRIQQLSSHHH

[9] = target: T4, Zinc finger protein mex-5 (Caenorhabditis elegans, UniProt Q9XUB2); assay: potency of MEX-5 RNA-binding blockers – biochemical, C. elegans, fluorescence polarization, dose response (AID 1960)
T4 sequence (Q9XUB2 whole entry): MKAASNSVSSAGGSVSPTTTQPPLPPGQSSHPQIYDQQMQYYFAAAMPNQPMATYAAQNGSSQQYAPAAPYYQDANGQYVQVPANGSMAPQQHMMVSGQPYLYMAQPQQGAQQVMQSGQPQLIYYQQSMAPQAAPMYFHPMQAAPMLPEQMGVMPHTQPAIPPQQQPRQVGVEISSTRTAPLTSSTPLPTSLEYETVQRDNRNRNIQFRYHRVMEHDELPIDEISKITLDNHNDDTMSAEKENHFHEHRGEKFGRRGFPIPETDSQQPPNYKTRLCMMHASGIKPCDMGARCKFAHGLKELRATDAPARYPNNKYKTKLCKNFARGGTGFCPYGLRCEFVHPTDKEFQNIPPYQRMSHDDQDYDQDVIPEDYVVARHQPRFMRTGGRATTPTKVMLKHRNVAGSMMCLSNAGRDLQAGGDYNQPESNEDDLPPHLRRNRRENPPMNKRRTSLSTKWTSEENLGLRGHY

Leucine aminopeptidase = target: T5, Leucine aminopeptidase (Plasmodium falciparum 3D7, UniProt Q8IL11); assay: P. falciparum M17LAP inhibitors, primary screen, biochemical, fluorogenic H-Leu-NHMec substrate, 1536-well (AID 1619); assay type: functional
T5 sequence (Q8IL11 whole entry): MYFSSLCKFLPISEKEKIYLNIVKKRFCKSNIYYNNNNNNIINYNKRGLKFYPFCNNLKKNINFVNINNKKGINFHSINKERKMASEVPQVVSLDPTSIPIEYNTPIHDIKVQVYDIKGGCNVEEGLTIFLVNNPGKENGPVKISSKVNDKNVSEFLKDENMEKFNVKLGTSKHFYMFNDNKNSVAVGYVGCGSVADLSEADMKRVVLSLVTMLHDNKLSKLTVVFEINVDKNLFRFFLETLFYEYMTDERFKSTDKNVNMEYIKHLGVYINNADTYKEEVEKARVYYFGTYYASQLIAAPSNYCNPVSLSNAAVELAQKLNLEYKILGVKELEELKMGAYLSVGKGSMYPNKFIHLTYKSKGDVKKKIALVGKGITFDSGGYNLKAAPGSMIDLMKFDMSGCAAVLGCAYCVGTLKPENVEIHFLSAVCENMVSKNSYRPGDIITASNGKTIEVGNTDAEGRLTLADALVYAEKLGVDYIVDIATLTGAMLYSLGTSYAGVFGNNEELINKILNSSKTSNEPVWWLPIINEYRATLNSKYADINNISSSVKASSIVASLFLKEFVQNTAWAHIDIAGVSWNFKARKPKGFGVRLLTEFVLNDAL

[10] = target: Glyceraldehyde-3-phosphate dehydrogenase (Homo sapiens, UniProt P04406)
[11] = target: T6, Heat shock factor protein 1 (Mus musculus, UniProt P38532); assay: decrease of HSF1-responsive luciferase luminescence – cell-based, NIH3T3, dose retest, confirmation (AID 2382); assay type: functional;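 further: NIH3T3 fibroblasts with HSF1-driven luciferase reporter stressed by proteasome inhibitor MG132; luminescence from HSF1-driven luciferase expression after 8 hours of MG132 stress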
T6 sequence (P38532 whole entry): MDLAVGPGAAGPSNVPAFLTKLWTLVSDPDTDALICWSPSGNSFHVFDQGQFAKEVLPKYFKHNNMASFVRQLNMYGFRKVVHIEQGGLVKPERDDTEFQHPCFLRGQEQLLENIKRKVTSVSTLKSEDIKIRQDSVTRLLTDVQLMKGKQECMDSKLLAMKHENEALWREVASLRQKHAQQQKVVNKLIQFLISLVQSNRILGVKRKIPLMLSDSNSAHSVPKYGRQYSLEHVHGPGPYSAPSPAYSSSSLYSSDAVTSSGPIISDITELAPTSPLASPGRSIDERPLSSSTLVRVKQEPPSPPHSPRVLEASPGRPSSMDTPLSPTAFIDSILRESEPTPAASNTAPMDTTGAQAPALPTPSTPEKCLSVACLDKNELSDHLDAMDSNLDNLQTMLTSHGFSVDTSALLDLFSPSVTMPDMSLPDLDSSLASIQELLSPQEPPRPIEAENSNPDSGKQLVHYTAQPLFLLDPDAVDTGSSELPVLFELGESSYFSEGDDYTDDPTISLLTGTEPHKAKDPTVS

[12] = P. falciparum Dd2 growth inhibitors, dose response, SYBR Green, cherry-picked samples (AID 1159567); assay type: functional, cell-based

FAD-linked sulfhydryl oxidase ALR, sequence (P55789 whole entry): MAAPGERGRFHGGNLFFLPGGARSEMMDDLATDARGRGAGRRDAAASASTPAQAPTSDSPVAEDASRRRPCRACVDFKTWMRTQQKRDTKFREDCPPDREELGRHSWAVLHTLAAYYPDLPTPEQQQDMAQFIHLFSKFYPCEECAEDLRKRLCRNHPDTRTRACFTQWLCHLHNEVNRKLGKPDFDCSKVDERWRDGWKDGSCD
DNA dC->dU-editing enzyme APOBEC-3G, sequence (Q9HC16 whole entry): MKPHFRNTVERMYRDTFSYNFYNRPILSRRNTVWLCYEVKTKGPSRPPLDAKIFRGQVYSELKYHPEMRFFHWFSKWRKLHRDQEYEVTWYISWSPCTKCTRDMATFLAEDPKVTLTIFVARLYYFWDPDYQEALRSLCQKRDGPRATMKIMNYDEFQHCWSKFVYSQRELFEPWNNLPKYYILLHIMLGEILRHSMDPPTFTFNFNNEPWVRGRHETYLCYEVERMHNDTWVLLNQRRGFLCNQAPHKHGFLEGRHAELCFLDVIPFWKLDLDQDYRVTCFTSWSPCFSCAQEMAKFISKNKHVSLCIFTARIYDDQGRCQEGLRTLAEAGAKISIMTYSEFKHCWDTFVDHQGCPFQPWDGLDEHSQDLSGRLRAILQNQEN
Nonstructural protein 1, sequence (Q194T2 whole entry): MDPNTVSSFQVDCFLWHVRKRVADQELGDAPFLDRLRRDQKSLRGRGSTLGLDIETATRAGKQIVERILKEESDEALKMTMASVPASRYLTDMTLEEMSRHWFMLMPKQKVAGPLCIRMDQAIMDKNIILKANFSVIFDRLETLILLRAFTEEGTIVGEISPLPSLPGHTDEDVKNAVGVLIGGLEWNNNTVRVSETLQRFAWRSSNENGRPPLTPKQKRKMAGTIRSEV
Cytochrome P450 2C9, sequence (P11712 whole entry): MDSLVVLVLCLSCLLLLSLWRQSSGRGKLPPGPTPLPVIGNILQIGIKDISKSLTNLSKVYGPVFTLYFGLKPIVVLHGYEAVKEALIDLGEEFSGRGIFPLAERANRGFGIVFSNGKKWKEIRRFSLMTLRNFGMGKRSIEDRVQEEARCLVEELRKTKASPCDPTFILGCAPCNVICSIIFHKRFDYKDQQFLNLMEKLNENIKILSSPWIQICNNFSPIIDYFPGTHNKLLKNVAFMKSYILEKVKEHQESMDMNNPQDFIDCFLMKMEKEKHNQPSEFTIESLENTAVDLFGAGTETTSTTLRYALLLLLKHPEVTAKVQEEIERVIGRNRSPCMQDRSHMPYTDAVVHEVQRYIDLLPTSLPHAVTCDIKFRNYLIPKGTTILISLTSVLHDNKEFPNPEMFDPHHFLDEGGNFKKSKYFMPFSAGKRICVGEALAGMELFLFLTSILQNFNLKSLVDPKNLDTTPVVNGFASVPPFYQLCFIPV
Cytochrome P450 3A4, sequence (P08684 whole entry): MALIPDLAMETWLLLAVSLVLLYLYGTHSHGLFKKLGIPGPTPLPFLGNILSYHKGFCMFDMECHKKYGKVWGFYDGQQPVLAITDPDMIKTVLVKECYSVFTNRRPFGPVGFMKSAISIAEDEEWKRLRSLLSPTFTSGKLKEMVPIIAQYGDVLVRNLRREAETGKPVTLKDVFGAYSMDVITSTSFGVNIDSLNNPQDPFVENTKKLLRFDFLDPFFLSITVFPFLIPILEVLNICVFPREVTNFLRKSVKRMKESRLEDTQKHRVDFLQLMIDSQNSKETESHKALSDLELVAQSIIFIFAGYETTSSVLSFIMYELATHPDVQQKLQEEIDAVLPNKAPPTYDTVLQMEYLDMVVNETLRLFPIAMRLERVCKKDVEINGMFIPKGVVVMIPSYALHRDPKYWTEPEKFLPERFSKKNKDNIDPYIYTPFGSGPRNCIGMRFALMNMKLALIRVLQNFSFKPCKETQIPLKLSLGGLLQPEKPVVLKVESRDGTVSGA
Glyceraldehyde-3-phosphate dehydrogenase, sequence (P04406 whole entry): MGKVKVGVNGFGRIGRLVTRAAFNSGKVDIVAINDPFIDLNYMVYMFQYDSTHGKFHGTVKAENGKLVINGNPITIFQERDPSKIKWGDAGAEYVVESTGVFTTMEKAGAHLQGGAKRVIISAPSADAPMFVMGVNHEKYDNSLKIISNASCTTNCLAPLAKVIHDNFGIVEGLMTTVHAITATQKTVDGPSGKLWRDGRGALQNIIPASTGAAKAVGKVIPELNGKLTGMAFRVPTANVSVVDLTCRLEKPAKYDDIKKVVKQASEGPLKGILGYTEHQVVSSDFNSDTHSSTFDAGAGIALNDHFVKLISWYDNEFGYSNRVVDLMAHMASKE

Cc1ccc(C(c2nnnn2Cc2cccs2)N2CCN(Cc3ccc4c(c3)OCO4)CC2)cc1 (centres undefined)
CC50 [1]: > 40 µM (active)
IC50 (Nonstructural protein 1): > 100 µM (active)

OCC1(CCCc2ccccc2)CCN(Cc2cc(F)ccc2F)CC1
EC50 [2]: 4.22 µM (active)

Nc1nc(-c2cccnc2)nn1C(=O)c1ccc(F)cc1
IC50 (Prothrombin): 2.01 µM (active)

C[C@H](Br)C(=O)c1ccc2cc(Br)c3ccccc3c2c1
AC50 (Cytochrome P450 2C9): inconclusive

O=C(CCCSc1ccc(Cl)cc1)Nc1cc(S(=O)(=O)N2CCOCC2)ccc1O
IC50 [3]: 33.2 µM (active)

CCCC(=O)n1nc(-c2cccnc2)nc1NCc1ccc(OC)cc1
IC50 (Prothrombin): 0.0883 µM (active)

Nc1ccccc1C(=O)N=Nc1[nH]c(N)c2ccccc12
IC50 (Nonstructural protein 1): 20.7 µM (active)

CSc1nc(N)nc(-c2cccs2)c1C#N
CC50 [4]: > 25 µM (active)
AC50 (Cytochrome P450 3A4): 25.1 µM (inconclusive)

CCOC(=O)CCNC(=O)N1CCCC(CNS(=O)(=O)c2cccs2)C1 (centres undefined)
IC50 (Prothrombin): > 50 µM (not active)

COc1ccc2[nH]c(NCc3ccccc3)nc2c1
EC50 [2]: 1.68 µM (active)

CCn1c(/C=C/c2ccc(O)cc2)nc2ccccc2c1=O
AC50 [5]: 3.35 µM (active)
CC50 [6]: 100 µM (active)
IC50 [7]: 33.7 µM (active)

Cc1cccn2c(=O)c3cc(S(=O)(=O)c4ccccc4)c(=N)n(Cc4cccnc4)c3nc12
CC50 [4]: > 50 µM (active)
EC50 [8]: 8.88 µM (inconclusive)
EC50 [9]: 18.8 µM (inconclusive)

COc1ccc(NC(=O)CC2COc3ccccc3O2)c(OC)c1 (centres undefined)
IC50 (Leucine aminopeptidase): 7.18 µM (active)

Cc1cc(C)n(CCOc2ccc(Cl)cc2Cl)n1
CC50 [4]: > 50 µM (active)

CCOc1cc(S(=O)(=O)NCc2ccc(OC)cc2)c(OCC)cc1-n1cnnn1
IC50 (Prothrombin): > 50 µM (not active)

O=C(NCc1ccc2c(c1)OCO2)c1cnc2ccc(S(=O)(=O)N3CCOCC3)cc2c1O
IC50 (Prothrombin): 0.845 µM (active)

COc1ccc(-c2ccnc3nc(Sc4ncc(C(F)(F)F)cc4Cl)nn23)cc1
CC50 [4]: 36.7 µM (active)

O=C1C(Cl)=C(N2CCN(c3ncccn3)CC2)C(=O)N1c1ccnc(Cl)c1
IC50 [10]: > 50 µM (inconclusive)

CCCCn1c(NCCO)nc2ccccc21
EC50 [2]: 1.68 µM (active)

O=C(N/N=C/c1coc2ccccc2c1=O)c1cccc([N+](=O)[O-])c1
IC50 (Leucine aminopeptidase): 35.2 µM (active)

COc1ccc(/C=N/Nc2ccc(C(=O)O)cc2)cc1Br
IC50 (Leucine aminopeptidase): 23.4 µM (active)
EC50 [11]: < 0.16 µM (active)
AC50 [5]: 0.837 µM (active)

CN(C)/C=N/c1ncc(C(=O)c2ccc3ccccc3c2)s1
AC50 (Cytochrome P450 2C9): inconclusive

COc1cccc(/C=N/NC(=S)Nc2cccc(C(=O)O)c2)c1
IC50 (Leucine aminopeptidase): 15.7 µM (active)

Sc1nc2ccccc2n1Cc1ccccc1
IC50 [3]: 37.2 µM (active)

O=S(=O)(c1ccc(F)cc1)N1C[C@@H]2N[C@H](C1)[C@H]2c1ccc(-c2ccc(F)cc2)cc1
AC50 [12]: 2.1 µM (active)

COc1ccc2c3c(n(C)c2c1)[C@H](CO)N(C(=O)CC1CC1)CC31CCN(Cc2nccs2)CC1
AC50 [12]: 3.93 µM (active)
